Assay results reported in PubChem BioAssay AID1963851 (Molecular Pharmacology Branch, DTP, NCI, 2024).
Values joined by “and” are separate entries in the source; they are usually repeats but may differ in a detail not shown here. Equal entries are not always repeated.

Test system: 188146-221-R-J1-PDC complex spheroid viability
Assay: Anticancer human tumor 188146-221-R-J1-PDC patient-derived colon adenocarcinoma cell line growth inhibition [POLQ]
Conditions: for viability, T/C: stronger effect = lower value; active = viability on the fitted dose curve at most 10% of control; inactive = the rest
Procedure: Multicellular complex tumor spheroid response to Polymerase (POL) inhibitors (novobiocin, ART-558, RP6685) in combination with a variety of drugs and investigational agents in selected tumor cell lines
The POL inhibitors (novobiocin, ART-558, and RP6685) were evaluated both individually and in combination with standard of care and investigational anticancer small molecules within a complex spheroid model of solid tumors. . Complex spheroids include a stromal component modeled by human endothelial cells (HUVEC) and fibroblasts modeled by human mesenchymal stem cells (MSCs). The concentration ranges selected for each drug and investigational agent were based upon clinically achievable concentrations if the clinical Cmax of the agent was known.
Compounds. The drugs and investigational agents: novobiocin (NSC847541), ART-558 (NSC835418), RP-6685 (NSC848927), peposertib (NSC802822), ceralasertib (NSC780249), elimusertib (NSC800525), camonsertib (NSC841442), AZD-1390 (NSC803789), olaparib (NSC753686), talazoparib (NSC767125), rucaparib (NSC756644), sotorasib (NSC818433), MRTX-1133 (NSC836407), SN-38 (NSC673596), topotecan (NSC609699), epotoside (NSC141540), doxorubicin (NSC123127), gemcitabine (NSC613327), 5-fluorouracil (NSC19893), paclitaxel (NSC125973), vemurafenib (NSC761431), MSA-2 (NSC828583), SN-011 (NSC837082), adavosertib (NSC754352), prexasertib (NSC758257), carboplatin (NSC241240) and oxaliplatin (NSC266046), were obtained from the National Cancer Institute (NCI) Developmental Therapeutics Program Chemical Repository (21). The FDA-approved anticancer drug set is available from the Developmental Therapeutics Program at https://dtp.cancer.gov/organization/dscb/obtaining/. […] The stock solutions were prepared in dimethyl sulfoxide (DMSO, Sigma-Aldrich, St. Louis, MO, cat. D2650), except for the platinum compounds which were prepared in saline (Quality Biological, Gaithersburg, MD, cat. 114-055-101), at 800-fold the tested concentration and stored at -70 degrees C prior to their use. All drugs and investigational agents were tested over a range starting from a high concentration at or near the clinical Cmax and decreasing in half-log increments. If the clinical Cmax for an agent had not been determined, the highest concentration tested was 10 microM, except for SN-38, which was tested at a high concentration of 1 microM.
Cell Culture. All cells were maintained in an incubator at 37 degrees C and 5% CO2 with 95% humidity. The PDC lines were cultured according to standard operating procedures established by the NCI PDMR (https://pdmr.cancer.gov). Table 3 of the manuscript, lists the cell lines along with the number of the three cell types plated to form the mct-spheroids and media for tumor cell growth. After thawing, all PDC lines, except 997537-175-T-J1-PDC and 415267-285-R-J2-PDC, were cultured in Matrigel-coated flasks prepared with a working solution of 1X Ham's F-12 nutrient mix, without supplementation (Thermo Fisher Scientific, cat. 11765054), 100 U/mL penicillin-streptomycin (Thermo Fisher Scientific, cat. 15140122), and 2.5% Matrigel (Corning Inc., Corning, NY, cat. 354248) for the first three passages. The two PDC lines 997537-175-T-J1-PDC and 415267-285-R-J2-PDC were cultured on uncoated flasks. The 857933-349-R-J2-PDC line was cultured in 6C/Colon 1B media containing advanced DMEM/F-12 (Thermo Fisher Scientific, cat. 12634028), 10 mM HEPES (Thermo Fisher Scientific, cat. 15630080), 1X GlutaMAX supplement (Thermo Fisher Scientific, cat. 35050061), 0.1 mg/mL primocin (InvivoGen, San Diego, CA, cat. ant-pm-2), 10% defined fetal bovine serum, heat inactivated (HyClone Laboratories Inc., Logan, UT, cat. SH30070.03HI), 50% L-WRN conditioned media (ATCC, cat. CRL-3276), 1.25 mM N-Acetyl-L-cysteine (Sigma-Aldrich, cat. A9165), 10 mM nicotinamide (Sigma-Aldrich, cat. N0636), 1X B-27 supplement (Thermo Fisher Scientific, cat. 17504044), 1X N-2 supplement (Thermo Fisher Scientific, cat. […]
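Also: spheroids exposed to compounds for seven days.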

CCc1cc2c(N3CCc4c(cc(Cn5ccnc5)cc4-c4cn(C)nc4C(F)(F)F)C3=O)ccnc2c(OC)n1 + Nc1ccc(C#CCN(C(=O)Cc2ncc(C(F)(F)F)cc2C(F)(F)F)c2ccc(F)cc2)nn1
inactive: viability, T/C (second compound 0.0316 µM, first compound 0.0316 µM) 105% | viability, T/C (second compound 0.0316 µM, first compound 0.1 µM) 107% | viability, T/C (second compound 0.0316 µM, first compound 0.316 µM) 90.8% | viability, T/C (second compound 0.0316 µM, first compound 1 µM) 93.7% | viability, T/C (second compound 0.0316 µM, first compound 3.16 µM) 73% | viability, T/C (second compound 0.0316 µM, first compound 10 µM) 54.6% | viability, T/C (second compound 0.1 µM, first compound 0.0316 µM) 110% | viability, T/C (second compound 0.1 µM, first compound 0.1 µM) 116% | viability, T/C (second compound 0.1 µM, first compound 0.316 µM) 87.9% | viability, T/C (second compound 0.1 µM, first compound 1 µM) 104% | viability, T/C (second compound 0.1 µM, first compound 3.16 µM) 82.3% | viability, T/C (second compound 0.1 µM, first compound 10 µM) 48.6% | viability, T/C (second compound 0.316 µM, first compound 0.0316 µM) 119% | viability, T/C (second compound 0.316 µM, first compound 0.1 µM) 108% | viability, T/C (second compound 0.316 µM, first compound 0.316 µM) 101% | viability, T/C (second compound 0.316 µM, first compound 1 µM) 91.4% | viability, T/C (second compound 0.316 µM, first compound 3.16 µM) 75.6% | viability, T/C (second compound 0.316 µM, first compound 10 µM) 51.3% | viability, T/C (second compound 1 µM, first compound 0.0316 µM) 113% | viability, T/C (second compound 1 µM, first compound 0.1 µM) 101% | viability, T/C (second compound 1 µM, first compound 0.316 µM) 85.8% | viability, T/C (second compound 1 µM, first compound 1 µM) 95.6% | viability, T/C (second compound 1 µM, first compound 3.16 µM) 72.4% | viability, T/C (second compound 1 µM, first compound 10 µM) 48.2% | viability, T/C (second compound 3.16 µM, first compound 0.0316 µM) 106% | viability, T/C (second compound 3.16 µM, first compound 0.1 µM) 91% | viability, T/C (second compound 3.16 µM, first compound 0.316 µM) 94.1% | viability, T/C (second compound 3.16 µM, first compound 1 µM) 87.8% | viability, T/C (second compound 3.16 µM, first compound 3.16 µM) 87.1% | viability, T/C (second compound 3.16 µM, first compound 10 µM) 50% | viability, T/C (second compound 10 µM, first compound 0.0316 µM) 110% | viability, T/C (second compound 10 µM, first compound 0.1 µM) 113% | viability, T/C (second compound 10 µM, first compound 0.316 µM) 107% | viability, T/C (second compound 10 µM, first compound 1 µM) 82.5% | viability, T/C (second compound 10 µM, first compound 3.16 µM) 71.2% | viability, T/C (second compound 10 µM, first compound 10 µM) 52.5%
9810 nM: IC50 (curve of first compound, second compound 0.1 µM)
> 10000 nM: IC50 (curve of first compound, second compound 0.0316 µM) | IC50 (curve of first compound, second compound 0.316 µM) | IC50 (curve of first compound, second compound 3.16 µM) | IC50 (curve of first compound, second compound 10 µM)
9790 nM: IC50 (curve of first compound, second compound 1 µM)

C=CCn1c(=O)c2cnc(Nc3ccc(N4CCN(C)CC4)cc3)nc2n1-c1cccc(C(C)(C)O)n1
> 1000 nM: IC50 (curve of compound)
inactive: viability, T/C (compound 0.00316 µM) 96.3% and 101% and 120% | viability, T/C (compound 0.01 µM) 104% and 117% and 103% | viability, T/C (compound 0.0316 µM) 94.6% and 104% and 95.5% | viability, T/C (compound 0.1 µM) 98.4% and 100% and 113% | viability, T/C (compound 0.316 µM) 99% and 117% and 98.4% | viability, T/C (compound 1 µM) 60.4% and 62.4% and 59%

Cc1cccc(N(C)C(=O)C2C(O)CCN2c2nc(C)cc(C(F)(F)F)c2C#N)c1 (centres undefined)
> 10000 nM: IC50 (compound alone, run of 10/31/2023) | IC50 (compound alone, run of 11/06/2023)
inactive: viability, T/C (compound 0.1 µM) 102% [middle of 13 runs] | viability, T/C (compound 0.316 µM) 100% [middle of 13 runs] | viability, T/C (compound 1 µM) 105% [middle of 13 runs] | viability, T/C (compound 3.16 µM) 101% [middle of 13 runs] | viability, T/C (compound 10 µM) 97.8% [middle of 13 runs]

CCc1c2c(nc3ccc(O)cc13)-c1cc3c(c(=O)n1C2)COC(=O)[C@]3(O)CC
inactive: viability, T/C (compound 0.00316 µM) 98.1% and 104% and 88.5% | viability, T/C (compound 0.01 µM) 73.8% and 73.1% and 74.3% | viability, T/C (compound 0.0316 µM) 35.4% and 45.1% and 29.7% | viability, T/C (compound 0.1 µM) 18% and 23.1% and 19.6% | viability, T/C (compound 0.316 µM) 12% and 12.2% and 13.3%
20.9 nM and 25.1 nM and 19 nM: IC50 (curve of compound)
6.11% and 8.93% and 6.3%: viability, T/C (compound 1 µM)

CC1COCCN1c1cc(-c2ccnn2C)c2ccnc(-c3ccn[nH]3)c2n1 (centres undefined)
239 nM and 230 nM and 198 nM: IC50 (curve of compound)
inactive: viability, T/C (compound 0.0316 µM) 86.5% and 92.4% and 75% | viability, T/C (compound 0.1 µM) 74.4% and 67.1% and 60.5% | viability, T/C (compound 0.316 µM) 42.4% and 42.7% and 43.7% | viability, T/C (compound 1 µM) 19.7% and 27.9% and 21.6% | viability, T/C (compound 3.16 µM) 17% and 16.9% and 14.9% | viability, T/C (compound 10 µM) 14.1% and 11.3% and 13.9%

Cn1ncnc1[C@H]1c2n[nH]c(=O)c3cc(F)cc(c23)N[C@@H]1c1ccc(F)cc1
inactive: viability, T/C (compound 0.000316 µM) 102% and 97.5% and 109% | viability, T/C (compound 0.001 µM) 112% and 93.3% and 103% | viability, T/C (compound 0.00316 µM) 89.9% and 107% and 95.2% | viability, T/C (compound 0.01 µM) 99.5% and 108% and 103% | viability, T/C (compound 0.0316 µM) 104% and 87% and 114% | viability, T/C (compound 0.1 µM) 95.4% and 95.5% and 82.1%
> 100 nM: IC50 (curve of compound)

COc1cc2cc(C(=O)CCC(=O)O)sc2cc1OC
> 10000 nM: IC50 (curve of compound)
inactive: viability, T/C (compound 0.0316 µM) 100% and 119% and 108% | viability, T/C (compound 0.1 µM) 84.6% and 105% (2×) | viability, T/C (compound 0.316 µM) 108% and 88.4% and 95% | viability, T/C (compound 1 µM) 93% and 103% and 104% | viability, T/C (compound 3.16 µM) 100% and 109% and 108% | viability, T/C (compound 10 µM) 111% and 110% and 95.3%
